In patent publication US8603527B2, “Pharmaceutical formulations of a substituted diaminopurine” (Signal Pharmaceuticals, LLC, priority 2010, dated 2013):
Where two headings read alike, the source gives them in different places.

What was measured:
[1] = Pharmacokinetics of a single ascending oral dose in healthy male subjects; format: in vivo, human; details: for AUC(0-inf) / AUC(0-t) / Cmax / half-life / Vd/F / Tmax: human, in vivo; for Vd/F: read-out: Vz/F
Procedure: Methods: The study was a randomized, double-blind, placebo-controlled, single-ascending-dose trial. Forty-five healthy male subjects were enrolled into 1 of the 5 cohorts (active:placebo=7:2 per cohort). Subjects received single oral doses of 5 mg, 25 mg, 50 mg, 100 mg or 200 mg of unformulated Compound I in a capsule, or matching placebo.

[2] = test system: time-mated female New Zealand White Hra:(NZW)SPF rabbits; experiment: Oral developmental toxicity study in the rabbit; details: rabbits
Text: (§1) Additionally, four groups of five animals/group served as toxicokinetic (TK) animals and received the vehicle or test article in the same manner and dose levels as the main study groups. All time-mated females arrived at the laboratory on GD 0, the day evidence of mating was observed.

[3] = Oral developmental toxicity study in the rabbit; details: female, New Zealand White Hra:(NZW)SPF, rabbit, in vivo, oral
Text: as §1

[4] = Aqueous solubility; format: physicochemical; details: aqueous medium
[5] = Toxicokinetics in pregnant female rabbits; format: in vivo, rabbit; details: for Kp / AUC / Cmax: female, New Zealand White Hra:(NZW)SPF, rabbit; for Kp: fetal plasma / maternal plasma, oral, Gestation Day 19, calculated from individual ratios, read-out: Fetal:Maternal Plasma Ratio; for Kp / Doe plasma concentration / Fetus concentration (pooled fetal blood samples): rabbits; for AUC / Cmax: po, pregnant rabbits; for Doe plasma concentration / Fetus concentration (pooled fetal blood samples): 2 hours after dosing on Gestation Day 19
Text: as §1

[6] = Relative bioavailability and food effect crossover study of formulated capsules in healthy male subjects; format: in vivo, human; details: Treatments A-D, single 100 mg dose
Text: Methods: This was an open-label, randomized, 4-treatment, 4-period, 4-sequence crossover study in healthy subjects to evaluate relative bioavailability and food effect on Compound I capsule formulations. The study consisted of a screening phase (Day −21 to Day −2) for subject eligibility, a baseline/admission phase (Day −1) for each period, treatment and assessment phase (Days 1 to Day 8) for each period, and a follow-up visit (Day 15±2 days from the last dose). During each period, subjects were domiciled at the study site from Day −1 through Day 2 (discharged on Day 3 after PK sampling and safety evaluations). Subjects then visited the study center on Days 4, 6, and 8 of each period for PK sampling and safety evaluations. Between periods, there was a minimum of 10 days of washout from the prior dose to the next dose (no more than 14 days).
Sixteen (16) male subjects were be randomized to one of the following 4 treatment sequences (4 subjects per sequence) on Day 1 of Period 1:
Subjects started fasting from the night of Day −1 for a minimum of 10 hours prior to dosing. On Day 1 of each period, subjects received their randomized treatment of Compound I at approximately 8 AM. […] Approximately 5 mL of blood sample was collected on days 1-8 for PK analysis. Subjects received standardized meals scheduled at approximately the same time during confinement in each period of the study.

[7] = single oral dose 5 mg, unformulated in capsule, healthy male subjects, geometric mean
[8] = single oral dose 25 mg, unformulated in capsule, healthy male subjects, geometric mean
[9] = single oral dose 50 mg, unformulated in capsule, healthy male subjects, geometric mean
[10] = single oral dose 100 mg, unformulated in capsule, healthy male subjects, geometric mean
[11] = single oral dose 200 mg, unformulated in capsule, healthy male subjects, geometric mean
[12] = male, single oral doses 5-200 mg
[13] = plasma, 10 mg/kg/day, 10 mg/kg/d oral, Gestation Day 7
[14] = plasma, 10 mg/kg/day, 10 mg/kg/d oral, Gestation Day 18
[15] = plasma, 20 mg/kg/day, 20 mg/kg/d oral, Gestation Day 7
[16] = plasma, 40 mg/kg/day, 40 mg/kg/d oral, Gestation Day 7
[17] = plasma, 40 mg/kg/day, 40 mg/kg/d oral, Gestation Day 18

Structure (SMILES): O[C@H]1CC[C@H](Nc2ncc3nc(Nc4c(F)cc(F)cc4F)n([C@H]4CCOC4)c3n2)CC1 [Compound I, 4-((9-((3S)-tetrahydro-3-furanyl)-8-((2,4,6-trifluorophenyl)amino)-9H-purin-2-yl)amino)-trans-cyclohexanol]
- AUC(0-inf) [1, 7]: 625 ng·h/mL
- AUC(0-t) [1, 7]: 567 ng·h/mL
- Cmax [1, 7]: 34.7 ng/mL
- half-life [1, 7]: 19.1 h
- Vd/F [1, 7]: 221 L
- Tmax ([1]; single oral dose 5 mg, unformulated in capsule, healthy male subjects, median (min-max), read-out: Tmax): 1.5 h
- AUC(0-inf) [1, 8]: 3600 ng·h/mL
- AUC(0-t) [1, 8]: 3150 ng·h/mL
- Cmax [1, 8]: 163 ng/mL
- half-life [1, 8]: 24.1 h
- Vd/F [1, 8]: 241 L
- Tmax ([1]; single oral dose 25 mg, unformulated in capsule, healthy male subjects, median (min-max), read-out: Tmax): 1.5 h
- AUC(0-inf) [1, 9]: 7320 ng·h/mL
- AUC(0-t) [1, 9]: 6700 ng·h/mL
- Cmax [1, 9]: 367 ng/mL
- half-life [1, 9]: 20.4 h
- Vd/F [1, 9]: 202 L
- Tmax ([1]; single oral dose 50 mg, unformulated in capsule, healthy male subjects, median (min-max), read-out: Tmax): 2 h
- AUC(0-inf) [1, 10]: 13600 ng·h/mL
- AUC(0-t) [1, 10]: 10800 ng·h/mL
- Cmax [1, 10]: 471 ng/mL
- half-life [1, 10]: 27.5 h
- Vd/F [1, 10]: 293 L
- Tmax ([1]; single oral dose 100 mg, unformulated in capsule, healthy male subjects, median (min-max), read-out: Tmax): 2 h
- AUC(0-inf) [1, 11]: 26400 ng·h/mL
- AUC(0-t) [1, 11]: 23100 ng·h/mL
- Cmax [1, 11]: 1430 ng/mL
- half-life [1, 11]: 25 h
- Vd/F [1, 11]: 273 L
- Tmax ([1]; single oral dose 200 mg, unformulated in capsule, healthy male subjects, median (min-max), read-out: Tmax): 1.5 h
- AUC(0-inf) [1, 12]: 600 to 27000 ng·h/mL
- AUC(0-t) [1, 12]: 500 to 24000 ng·h/mL
- Cmax [1, 12]: 30 to 1500 ng/mL
- half-life [1, 12]: 19 to 28 h
- Tmax ([1]; male, single oral doses 5-200 mg, unformulated in a capsule, healthy males, read-out: median Tmax): 1.5 to 2 h
- Vd/F [1, 12]: 200 to 300 L
- urinary excretion of unchanged Compound I ([1]; over 72 hrs post-dose, single oral doses): 9-13 % of the administered dose
- CLF [1, 7]: 133.36 mL/min
- CLF [1, 8]: 115.58 mL/min
- CLF [1, 9]: 113.88 mL/min
- CLF [1, 10]: 122.89 mL/min
- CLF [1, 11]: 126.02 mL/min
- CLF ([1]; single oral doses 5-200 mg): 100 to 140 mL/min
- NOEL for developmental toxicity [2]: 20 mg/kg/day
- doses at which developmental effects were observed [2]: 40 mg/kg/day
- teratogenicity [2]: teratogenic
- litters with viable fetuses for evaluation on GD 29 ([2]; 10 mg/kg/day): 19
- main study pregnancy index ([2]; 10 mg/kg/day): 95%
- litters with viable fetuses for evaluation on GD 29 ([2]; 20 mg/kg/day): 20
- main study pregnancy index ([2]; 20 mg/kg/day): 100%
- litters with viable fetuses for evaluation on GD 29 ([2]; 40 mg/kg/day): 10
- main study pregnancy index ([2]; 40 mg/kg/day): 95%
- litters containing one or more fetuses with a malformation ([2]; 40 mg/kg/day, GD 29, controls 25%): 70%
- NOAEL [3]: 20 mg/kg/day
- solubility [4]: < 1000 µg/mL
- Kp ([5]; 10 mg/kg/day, 10 mg/kg/d): 0.1
- Kp ([5]; 20 mg/kg/day, 20 mg/kg/d): 0.09
- Kp ([5]; 40 mg/kg/day, 40 mg/kg/d): 0.24
- AUC ([5]; in vivo, 20 mg/kg/day, 20 mg/kg/d oral, Gestation Day 18): 85000 ng·h/mL
- AUC [5, 13]: 35200 ng·h/mL
- Cmax [5, 13]: 6520 ng/mL
- AUC [5, 14]: 39300 ng·h/mL
- Cmax [5, 14]: 6730 ng/mL
- AUC [5, 15]: 79100 ng·h/mL
- Cmax [5, 15]: 12500 ng/mL
- Cmax ([5]; plasma, 20 mg/kg/day, 20 mg/kg/d oral, Gestation Day 18): 13200 ng/mL
- AUC [5, 16]: 152000 ng·h/mL
- Cmax [5, 16]: 21200 ng/mL
- AUC [5, 17]: 152000 ng·h/mL
- Cmax [5, 17]: 21500 ng/mL
- maternal AUC as fold of human AUC ([5]; rabbits at NOAEL 20 mg/kg/day vs human 100 mg BID): ~3.4 fold
- maternal AUC as fold of human AUC ([5]; rabbits at NOAEL 20 mg/kg/day vs human 200 mg BID): ~1.6 fold
- Doe plasma concentration ([5]; 10 mg/kg/d): 4916 ng/mL
- Fetus concentration (pooled fetal blood samples) ([5]; 10 mg/kg/d): 465.7 ng/mL
- Doe plasma concentration ([5]; 20 mg/kg/d): 9217 ng/mL
- Fetus concentration (pooled fetal blood samples) ([5]; 20 mg/kg/d): 870.7 ng/mL
- Doe plasma concentration ([5]; 40 mg/kg/d): 15594 ng/mL
- Fetus concentration (pooled fetal blood samples) ([5]; 40 mg/kg/d): 3426 ng/mL
- AUCt, Intra-Subject CV % [6]: 16.1%
- AUC∞, Intra-Subject CV % [6]: 15.3%
- Cmax, Intra-Subject CV % [6]: 36.8%
